The source of these data is patent US20260327655A1, “SMALL-MOLECULE REGULATED ALTERNATIVE SPLICING” (priority 2023, published 2026).

SMILES strings stand for the structures.

One assay relates to RS1-1 and variants. Kind of assay: Luciferase induction assay, RS1-1 and variants in HEK-293T cells. The assay is classed as cell-based, human. Particulars: RS1-1, RS1-2, RS1-3, RS1-4, RS1-7, and RS1-9; FIG. 9A; 18 hours. The protocol:
(§1) HEK-293T cells were cultured in DMEM+10% FBS, collected after trypsinization, and dispensed into 96-well plates (cell culture-treated). Each well of the plate was seeded with 1.0×10^5 cells in 100 μL culture medium. After a 1-hour incubation in the tissue culture incubator (5% CO2, 37° C.), plasmid DNA was complexed with a transfection reagent, such as Lipofectamine 3000, and added to respective wells on the plate. Each well received 100 ng of plasmid DNA complexed with 0.15 μL Lipofectamine 3000. The plasmids utilized in the experiment encoded a CMV promoter upstream of the RS1-1 variant that controlled the expression of a Firefly Luciferase gene followed by a SV40 polyadenylation signal. After a 10-minute incubation at room temperature, either DMSO vehicle or a splice modulator compound at specified doses was added to the wells of the plate. Plates were then incubated for 18 hours in a tissue culture incubator. Endpoint analysis was performed by adding 100 μL of a Luciferase substrate, such as Steady-Luc Firefly Luciferase substrate, to each well of the assay plate. The liquid contents of each was transferred to a 96-well plate, mixed again for 2 min on an orbital shaker, and incubated at room temperature for 5 min. Finally, the luminescent signal from each well was measured with a plate reader.

Another assay relates to RS1-10, HepG2 cells. Kind of assay: RS1-10 performance in HepG2 cells. The assay is classed as cell-based, human. Conditions: CBA promoter, 18 hours, FIG. 10D. As for the experimental part: The human SH-SY5Y neuroblastoma cell line or the human hepatic HepG2 cell line was cultured in EMEM+10% FBS, collected after trypsinization, and then dispensed into 96-well plates (cell culture-treated). Each well of the plate was seeded with 1.0×10^5 cells in 100 μL culture medium. After a 1-hour incubation in the tissue culture incubator (5% CO2, 37 degrees C.), plasmid DNA was complexed with a transfection reagent, such as Lipofectamine 3000, and added to respective wells on the plate. Each well received an equivalent of 100 ng of plasmid DNA complexed with 0.15 μL Lipofectamine 3000 (Opti-MEM I was used as diluent). Triplicate wells were used for each condition tested in the experiment. The plasmids utilized in the human SH-SY5Y neuroblastoma cell line encoded either a CBA promoter or cloned human Synapsin promoter upstream of the RS1-10 construct that controlled the expression of a Firefly Luciferase gene followed by a SV40 polyadenylation signal. The plasmids utilized in the HepG2 cells encoded a CBA promoter upstream of the RS1-10 construct that controlled the expression of a Firefly Luciferase gene followed by a SV40 polyadenylation signal.
After a 10-minute incubation at room temperature, either DMSO vehicle or TA was added to the wells of the plate. […] Finally, the luminescent signal from each well was measured with a plate reader. […]

The test system of assay [1] is RS2-3 minigene (Firefly Luciferase), HEK-293T cells. Briefly: Luciferase induction assay, RS2-3 with splice modulator compounds in HEK-293T cells. It is filed as cell-based. Conditions: Homo sapiens, 18 hours, n of 3, read-out: Mean fold-induction of luciferase (relative to vehicle control). As for the experimental part:
(§2) HEK-293T cells were cultured in DMEM+10% FBS, collected after trypsinization, and then dispensed into 96-well plates (cell culture-treated). Each well of the plate was seeded with 1.0×10^5 cells in 100 μL culture medium. After a 1-hour incubation in a tissue culture incubator (5% CO2, 37 degrees C.), plasmid DNA was complexed with a transfection reagent, such as Lipofectamine 3000, and added to respective wells on the plate. Each well received an equivalent of 100 ng of plasmid DNA complexed with 0.15 μL Lipofectamine. Triplicate wells were used for each condition tested in the experiment. The plasmid utilized in the experiment encoded a CMV promoter upstream of the RS2-3 variant that controlled the expression of a Firefly Luciferase gene followed by a SV40 polyadenylation signal. After a 10-minute incubation at room temperature, either DMSO vehicle or specified compound at specified dose was added to the wells of the plate. Plates were then incubated for 18 hours in a tissue culture incubator. Endpoint analysis was performed by adding 100 uL Steady-Luc Firefly Luciferase substrate to each well of the assay plate. After mixing, the liquid contents of each was transferred to a 96-well plate, mixed again for 2 min on an orbital shaker, and incubated at room temperature for 5 min. Finally, the luminescent signal from each well was measured with a with PerkinElmer Envision plate reader. The results of this assay show RS2-3 responded to the majority of the splice modulator compounds used (FIG. 13C) Bars represent mean+/−standard deviation of 3 wells normalized to vehicle controls.

Assay [2] has as its system RS3-13 minigene (Firefly Luciferase), HEK-293T cells. Briefly: Luciferase induction assay, RS3-13 with splice modulator compounds in HEK-293T cells. The assay is classed as cell-based. Particulars: Homo sapiens, 18 hours, n of 3, read-out: Mean fold-induction of luciferase (relative to vehicle control). As for the experimental part: as §2, with “RS3-13” for “the RS2-3 variant”, “RS3-13” for “RS2-3”, “14D)” for “13C)”

Assay [3] has as its system RS1-10 minigene (Firefly Luciferase), HEK-293T cells. Briefly: Luciferase induction assay, RS1-10 with splice modulator compounds in HEK-293T cells. Conditions: Homo sapiens, 18 hours, n of 3, read-out: Mean fold-induction of luciferase (relative to vehicle control). The assay is classed as cell-based. As for the experimental part:
as §2, with “of the RS I-10 variant that” for “of the RS2-3 variant that”, “assay show RS1-10 responded to” for “assay show RS2-3 responded to”, “compounds used in a dose responsive manner (FIG. 9C).” for “compounds used (FIG. 13C)”, “manner (FIG. 9C). Bars represent” for “used (FIG. 13C) Bars represent”

Another assay concerns RS2-1 and variants. Kind of assay: Luciferase induction assay, RS2-1 and variants in HEK-293T cells. The assay is classed as cell-based, human. Particulars: 300 nM (FIG. 13A), 18 hours, FIGS. 13A, 13B. As for the experimental part:
as §1, with “RS2-1 construct and variants” for “RS1-1 variant”, “100B” for “a splice modulator compound”, “reader. […]” for “reader.”

Take `Cc1cn2cc(-c3ccc(-c4ccc(C5CNC5)nn4)c(O)c3)cc(F)c2n1.Cl` [1 A, 2-(6-(azetidin-3-yl)pyridazin-3-yl)-5-(8-fluoro-2-methylimidazo[1,2-a]pyridin-6-yl)phenol, HCl]: in the assay with RS1-1 and variants, the “fold induction of luciferase” value is reported as “increasing fold induction of luciferase with increasing concentration of splice modulator”. Further, the fold-induction of luciferase result in the assay with RS1-10, HepG2 cells is on record as “showed fold-induction of luciferase”.

With `Cc1cn2cc(-c3nc(=O)n4cc(N5CCNCC5)ccc4n3)cc(F)c2n1.Cl` [Compound 100B, 2-(8-fluoro-2-methylimidazo[1,2-a]pyridin-6-yl)-7-(piperazin-1-yl)-4H-pyrido[1,2-a][1,3,5]triazin-4-one hydrochloride], the fold induction at 0.1 µM worked out at 9.79 in assay [1] (RS2-3, 100 nM); 10 in assay [2] (RS3-13, 100 nM); 11.9 in assay [3] (RS1-10, 100 nM). The fold induction at 1 µM amounted to 26.4 in assay [1] (RS2-3, 1,000 nM); 42.4 in assay [2] (RS3-13, 1,000 nM); 57.1 in assay [3] (RS1-10, 1,000 nM). In the assay with RS2-1 and variants, the “fold induction of luciferase compared to vehicle, constructs vs RS2-1” value is listed as “The majority of the constructs show higher fold induction of luciferase”.
